Data taken from US20090060997A1, “PROCESS FOR PRODUCING A PHARMACEUTICAL PREPARATION FOR THERAPEUTIC TREATMENT OF ENDOMETRIOSIS CONTAINING A COMBINATION OF A GESTAGEN AND (6S)-5-METHYLTETRAHYDROFOLATE” (priority 2007, published 2009).

Tests used:
[1] = parameters: species or system women; details: in vivo
Description: (§1) 128 patients were randomly assigned to the LA group and 124 patients to the DNG group. The efficacy of the therapy was examined, among other ways, with the aid of a pain scale (Visual Analog Scale, VAS) questionnaire that was filled out by the patient.

[2] = tested on: women with laparoscopically diagnosed endometriosis; experiment: Clinical study in endometriosis: pain scale (Visual Analog Scale, VAS) questionnaire; assay type: in vivo; details: 6 months; for reduction in pain (VAS) at the end of the treatment compared to the beginning of the study: DNG 2 mg/day orally, LA 3.75 mg s.c. every 4 weeks
Description: as §1

ovulation = details: daily dose; cited from earlier work
[3] = tested on: persons affected with endometriosis; details: 2 mg of dienogest daily for 24 weeks; cited from earlier work

Structure (SMILES) | drop in bone density [1] | reduction in pain (VAS) at the end of the treatment compared to the beginning of the study [2] [mm] | ovulation-inhibiting dose (ovulation) [mg] | result of the treatment of endometriosis [3] | statistical analysis of pain reduction versus LA ([2]; DNG 2 mg/day orally vs LA 3.75 mg s.c. every 4 weeks)
CCNC(=O)[C@@H]1CCCN1C(=O)[C@H](CCCNC(=N)N)NC(=O)[C@H](CC(C)C)NC(=O)[C@@H](CC(C)C)NC(=O)[C@H](Cc1ccc(O)cc1)NC(=O)[C@H](CO)NC(=O)[C@H](Cc1c[nH]c2ccccc12)NC(=O)[C@H](Cc1c[nH]cn1)NC(=O)[C@@H]1CCC(=O)N1 [LA, leuprorelin acetate] | 4% | −46.0 | – | – | –
CC(=O)O[C@]1(C(C)=O)CC[C@H]2[C@@H]3C=C(Cl)C4=CC(=O)CC[C@]4(C)[C@H]3CC[C@@]21C [chlormadinone acetate] | – | – | 1.7 | – | –
CC(=O)O[C@]1(C(C)=O)CC[C@H]2[C@@H]3C=C(Cl)C4=CC(=O)[C@@H]5C[C@@H]5[C@]4(C)[C@H]3CC[C@@]21C [cyproterone acetate] | – | – | 1 | – | –
C[C@]12CCC3=C4CCC(=O)C=C4CC[C@H]3[C@@H]1CC[C@@]2(O)CC#N [dienogest, 17α-cyano-methyl-17-β-hydroxy-estra-4,9-dien-3-one] | no reduction in bone density | −47.5 | – | comparable to that with Danazol or with a GnRH agonist | not inferior to LA
